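A five-concentration, 48-hour dose response in 96-well plates underlies each endpoint, interpolated linearly between surrounding concentrations. Here, GI50 denotes the concentration required for 50% inhibition of growth.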 Activity calls are given as the source filed them. Rule as the data show it: active = GI50 up to about 1.1 µM and inactive = higher.
How the values were obtained:
Experiment in all cases: DTP human tumour cell line panel, 48 h
786-0 = tested on: 786-0
A549 = tested on: A549
BT-549 = tested on: BT-549
CAKI-1 = tested on: CAKI-1
CCRF-CEM = tested on: CCRF-CEM
HOP-92 = tested on: HOP-92
MDA-MB-435 = tested on: MDA-MB-435
NCI-H460 = tested on: NCI-H460
OVCAR-3 = tested on: OVCAR-3
OVCAR-4 = tested on: OVCAR-4
RXF 393 = tested on: RXF 393
SF-295 = tested on: SF-295
SK-MEL-5 = tested on: SK-MEL-5
SN12C = tested on: SN12C
SNB-75 = tested on: SNB-75
TK-10 = tested on: TK-10
U-251 = tested on: U-251
SK-OV-3 = tested on: SK-OV-3
MDA-N = tested on: MDA-N

Measured: GI50

Nc1ccc2c(c1)C(=O)c1ccccc1-2
inactive: 786-0 > 100 µM | A549 > 100 µM | BT-549 34 µM | CAKI-1 56.5 µM | CCRF-CEM 71.6 µM | HOP-92 28.6 µM | MDA-MB-435 > 100 µM | NCI-H460 > 100 µM | OVCAR-3 55.7 µM | OVCAR-4 > 100 µM | RXF 393 > 100 µM | SF-295 > 100 µM | SK-MEL-5 > 100 µM | SN12C > 100 µM | SNB-75 > 100 µM | TK-10 > 100 µM | U-251 > 100 µM

O=C(NC1CCCCC1NC(c1ccccc1)(c1ccccc1)c1ccccc1)C(=O)NC1CCCCC1NC(c1ccccc1)(c1ccccc1)c1ccccc1 (stereo not given)
inactive: 786-0 53.7 µM | A549 > 100 µM | BT-549 28.1 µM | CAKI-1 > 100 µM | CCRF-CEM > 100 µM | HOP-92 10.5 µM | MDA-MB-435 > 100 µM | NCI-H460 > 100 µM | OVCAR-3 > 100 µM | OVCAR-4 22.6 µM | SF-295 > 100 µM | SK-MEL-5 > 100 µM | SK-OV-3 28.6 µM | SN12C > 100 µM | SNB-75 1.63 µM | TK-10 > 100 µM | U-251 21 µM

Nc1ncnc2c1ncn2[C@@H]1O[C@H](COC(c2ccccc2)(c2ccccc2)c2ccccc2)[C@@H](OC(=S)Oc2ccccc2)[C@@H]1F
inactive: 786-0 4.58 µM | A549 15 µM | BT-549 4.95 µM | CAKI-1 9.73 µM | CCRF-CEM 2.5 µM | HOP-92 8.43 µM | MDA-MB-435 4.03 µM | NCI-H460 13.1 µM | OVCAR-3 4.55 µM | OVCAR-4 9.08 µM | RXF 393 2.82 µM | SF-295 7.98 µM | SK-MEL-5 4.89 µM | SK-OV-3 14.1 µM | SN12C 4.46 µM | SNB-75 14.8 µM | TK-10 17.6 µM | U-251 10.2 µM

Cc1cn(C2C=CC(COP(=O)(OCc3ccc([N+](=O)[O-])o3)N(C)CCCCCl)O2)c(=O)[nH]c1=O (stereo not given)
inactive: 786-0 10.9 µM | A549 10.9 µM | CAKI-1 16 µM | CCRF-CEM 5.43 µM | HOP-92 1.95 µM | MDA-MB-435 1.8 µM | MDA-N 2.63 µM | NCI-H460 10 µM | OVCAR-3 1.75 µM | OVCAR-4 4.31 µM | RXF 393 2.38 µM | SF-295 15.6 µM | SK-MEL-5 1.22 µM | SK-OV-3 11.7 µM | SN12C 10.8 µM | SNB-75 1.58 µM | TK-10 16.6 µM | U-251 5.58 µM

CCCCC(=O)c1ccc2ccccc2c1O
inactive: 786-0 > 100 µM | BT-549 > 100 µM | CAKI-1 > 100 µM | CCRF-CEM 42.8 µM | HOP-92 > 100 µM | MDA-MB-435 > 100 µM | NCI-H460 > 100 µM | OVCAR-4 > 100 µM | RXF 393 99.1 µM | SF-295 > 100 µM | SK-MEL-5 > 100 µM | SK-OV-3 > 100 µM | SNB-75 > 100 µM | TK-10 > 100 µM | U-251 > 100 µM

CC(/C=C/c1ccccc1)=N\NC(=S)N/N=C(C)/C=C/c1ccccc1
inactive: 786-0 11 µM | A549 17.9 µM | BT-549 24.5 µM | CCRF-CEM 6.38 µM | MDA-MB-435 15.5 µM | MDA-N 25.5 µM | NCI-H460 5.11 µM | OVCAR-3 5.64 µM | OVCAR-4 5.4 µM | RXF 393 13.7 µM | SF-295 20.7 µM | SK-MEL-5 13.8 µM | SK-OV-3 13.3 µM | SN12C 34.4 µM | SNB-75 22.5 µM | TK-10 20.5 µM | U-251 4.59 µM

CC(C)(Cc1ccccc1)N1C(=O)N1C(C)(C)Cc1ccccc1
inactive: 786-0 21.6 µM | A549 20.1 µM | BT-549 29.4 µM | CAKI-1 > 100 µM | CCRF-CEM 20.8 µM | MDA-MB-435 39.1 µM | MDA-N 38.8 µM | NCI-H460 > 100 µM | OVCAR-3 > 100 µM | OVCAR-4 34.7 µM | RXF 393 14.8 µM | SK-MEL-5 14.1 µM | SK-OV-3 57.4 µM | SN12C 52 µM | SNB-75 32.5 µM | TK-10 > 100 µM | U-251 38 µM

CN(C)CCCNC(=O)N/N=C/c1ccc(O)cc1
inactive: 786-0 > 100 µM | A549 > 100 µM | BT-549 > 100 µM | CAKI-1 > 100 µM | CCRF-CEM > 100 µM | MDA-MB-435 > 100 µM | MDA-N > 100 µM | NCI-H460 > 100 µM | OVCAR-3 > 100 µM | SF-295 > 100 µM | SK-MEL-5 > 100 µM | SK-OV-3 > 100 µM | SN12C > 100 µM | SNB-75 59.2 µM | TK-10 > 100 µM | U-251 > 100 µM
